ChEMBL document CHEMBL5465560, “Selectivity Literature for EUbOPEN Chemogenomic Library” (2024)

Columns and labels:
[1] = target: T1, Cytoplasmic tyrosine-protein kinase BMX (Homo sapiens) (UniProt P51813); experiment: Selectivity interaction (Kinase panel (DSF assay)) EUB0001558a BMX
T1 sequence (whole entry): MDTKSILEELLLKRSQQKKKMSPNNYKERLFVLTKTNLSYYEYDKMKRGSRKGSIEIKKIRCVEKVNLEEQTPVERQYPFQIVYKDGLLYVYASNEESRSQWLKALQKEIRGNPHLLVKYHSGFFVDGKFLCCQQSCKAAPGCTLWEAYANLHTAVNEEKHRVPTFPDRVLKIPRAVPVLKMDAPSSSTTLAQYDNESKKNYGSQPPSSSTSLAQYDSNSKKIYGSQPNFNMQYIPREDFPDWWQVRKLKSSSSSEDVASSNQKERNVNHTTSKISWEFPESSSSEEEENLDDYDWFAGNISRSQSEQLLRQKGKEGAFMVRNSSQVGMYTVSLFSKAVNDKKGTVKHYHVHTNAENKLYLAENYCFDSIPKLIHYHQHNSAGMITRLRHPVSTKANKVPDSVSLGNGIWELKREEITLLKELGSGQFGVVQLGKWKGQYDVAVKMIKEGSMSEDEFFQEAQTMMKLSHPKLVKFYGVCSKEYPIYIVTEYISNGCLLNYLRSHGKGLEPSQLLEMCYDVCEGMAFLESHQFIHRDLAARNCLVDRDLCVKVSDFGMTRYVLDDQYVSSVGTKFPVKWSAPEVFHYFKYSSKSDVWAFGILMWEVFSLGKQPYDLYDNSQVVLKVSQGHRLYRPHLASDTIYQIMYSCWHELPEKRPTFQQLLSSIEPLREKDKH

[2] = target: Cyclin-dependent kinase 1/cyclin B (Homo sapiens) (UniProt P06493+P14635+Q8WWL7+O95067); experiment: Selectivity interaction (Upstate Kinase Profiler service (Millipore)) EUB0000056c CDK1; assay type: protein-complex assay; conditions: at 1 µM
[3] = target: Tyrosine-protein kinase HCK (Homo sapiens) (UniProt P08631); experiment: Selectivity interaction (ProQinase) EUB0000171b HCK
Tyrosine-protein kinase HCK (Homo sapiens), sequence (P08631 2-526 limits assumed): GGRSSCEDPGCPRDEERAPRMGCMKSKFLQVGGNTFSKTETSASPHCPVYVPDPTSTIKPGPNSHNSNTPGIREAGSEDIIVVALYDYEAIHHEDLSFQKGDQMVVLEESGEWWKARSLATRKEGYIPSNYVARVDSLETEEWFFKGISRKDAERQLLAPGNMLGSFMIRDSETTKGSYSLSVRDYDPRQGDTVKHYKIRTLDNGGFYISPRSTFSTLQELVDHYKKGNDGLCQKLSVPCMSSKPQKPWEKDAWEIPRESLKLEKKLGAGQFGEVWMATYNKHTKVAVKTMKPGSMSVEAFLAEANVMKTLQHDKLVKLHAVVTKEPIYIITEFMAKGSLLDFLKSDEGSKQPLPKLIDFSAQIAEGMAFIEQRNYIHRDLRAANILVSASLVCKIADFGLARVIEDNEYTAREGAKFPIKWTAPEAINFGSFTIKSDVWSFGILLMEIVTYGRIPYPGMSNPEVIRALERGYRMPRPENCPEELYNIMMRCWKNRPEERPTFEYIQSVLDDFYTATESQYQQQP

[4] = target: T2, Phosphatidylinositol 5-phosphate 4-kinase type-2 alpha (Homo sapiens) (UniProt P48426); experiment: Selectivity interaction (Kinase panel (KiNativ target engagement assay in Jurkat cells)) EUB0001635a PIP4K2A; assay type: cell-based; conditions: Selectivity number of off-targets 0.0, Selectivity number of targets 233.0, Source Knowledge https://www.sciencedirect.com/science/article/pii/S2451945619300674?via%3Dihub, at 1 µM
T2 sequence (whole entry): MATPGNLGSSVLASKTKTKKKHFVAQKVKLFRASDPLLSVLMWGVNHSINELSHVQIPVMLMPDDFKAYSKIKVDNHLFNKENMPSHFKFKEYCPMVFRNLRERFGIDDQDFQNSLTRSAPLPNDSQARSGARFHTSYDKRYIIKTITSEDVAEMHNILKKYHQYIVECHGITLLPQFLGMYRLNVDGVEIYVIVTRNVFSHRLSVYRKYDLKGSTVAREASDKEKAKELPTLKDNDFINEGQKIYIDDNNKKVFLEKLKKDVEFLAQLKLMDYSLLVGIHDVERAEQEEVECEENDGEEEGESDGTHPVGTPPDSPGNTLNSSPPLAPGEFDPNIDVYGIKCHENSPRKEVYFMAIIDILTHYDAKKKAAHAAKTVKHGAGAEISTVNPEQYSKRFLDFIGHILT

[5] = system: Tyrosine-protein kinase ABL1 (Homo sapiens), P00519 [H396P]; experiment: Selectivity interaction (KinomeScan (DiscoverX)) EUB0000666a ABL1; conditions: at 10 µM
[6] = system: RAF proto-oncogene serine/threonine-protein kinase (Homo sapiens), P04049 [Y340D,Y341D]; experiment: Selectivity interaction (LanthaScreen Eu Kinase Binding Assay) EUB0001632a RAF1; conditions: at 10 µM
RAF proto-oncogene serine/threonine-protein kinase (Homo sapiens), P04049 [Y340D,Y341D], sequence (P04049 whole entry Y340D/Y341D): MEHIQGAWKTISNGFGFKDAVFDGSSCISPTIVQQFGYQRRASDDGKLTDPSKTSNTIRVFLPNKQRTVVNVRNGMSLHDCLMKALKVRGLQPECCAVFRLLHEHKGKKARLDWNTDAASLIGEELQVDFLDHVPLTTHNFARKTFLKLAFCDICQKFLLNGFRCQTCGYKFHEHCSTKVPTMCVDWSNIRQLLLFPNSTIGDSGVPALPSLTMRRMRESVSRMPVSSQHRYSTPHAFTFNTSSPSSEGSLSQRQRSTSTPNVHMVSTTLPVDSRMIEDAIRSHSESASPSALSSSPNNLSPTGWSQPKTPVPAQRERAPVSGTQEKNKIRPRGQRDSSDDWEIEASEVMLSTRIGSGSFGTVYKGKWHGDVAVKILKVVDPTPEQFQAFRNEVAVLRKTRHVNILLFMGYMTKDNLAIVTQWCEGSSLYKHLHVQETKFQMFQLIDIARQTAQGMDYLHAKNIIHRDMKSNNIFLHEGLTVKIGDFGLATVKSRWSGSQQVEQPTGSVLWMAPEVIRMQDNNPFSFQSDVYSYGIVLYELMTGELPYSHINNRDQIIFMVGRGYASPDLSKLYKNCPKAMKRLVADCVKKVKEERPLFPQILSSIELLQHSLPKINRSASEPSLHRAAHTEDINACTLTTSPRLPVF

[7] = target: Protein arginine N-methyltransferase 5 (Homo sapiens, UniProt O14744); experiment: Selectivity interaction (Transferase panel (protein, RNA, and DNA methyltransferases. and EP300 (acetyltransferase))) EUB0000270b PRMT5
Protein arginine N-methyltransferase 5, sequence (O14744 whole entry): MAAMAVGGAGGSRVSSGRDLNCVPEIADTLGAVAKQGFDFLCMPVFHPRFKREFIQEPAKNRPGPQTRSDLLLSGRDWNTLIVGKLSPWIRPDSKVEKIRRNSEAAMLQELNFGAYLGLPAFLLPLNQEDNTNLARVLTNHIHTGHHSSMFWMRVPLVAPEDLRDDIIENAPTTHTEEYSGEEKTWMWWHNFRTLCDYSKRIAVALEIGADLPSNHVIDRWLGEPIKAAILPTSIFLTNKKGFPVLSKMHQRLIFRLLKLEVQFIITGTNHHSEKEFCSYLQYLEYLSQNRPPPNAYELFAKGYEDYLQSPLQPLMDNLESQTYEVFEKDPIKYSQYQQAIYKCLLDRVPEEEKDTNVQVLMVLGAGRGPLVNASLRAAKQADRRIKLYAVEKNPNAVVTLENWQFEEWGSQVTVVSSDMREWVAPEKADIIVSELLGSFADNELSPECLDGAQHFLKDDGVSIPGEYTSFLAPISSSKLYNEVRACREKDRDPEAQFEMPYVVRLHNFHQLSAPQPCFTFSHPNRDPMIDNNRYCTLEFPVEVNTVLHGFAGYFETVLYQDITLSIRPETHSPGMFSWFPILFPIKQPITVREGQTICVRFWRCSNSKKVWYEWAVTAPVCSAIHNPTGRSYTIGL

[8] = target: Serine/threonine-protein kinase Chk2 (Homo sapiens) (UniProt O96017); experiment: Selectivity interaction (ActivX KiNativ screen (kinase selectivity in THP-1 cell lysates)) EUB0000639a CHEK2; assay type: subcellular; conditions: lysate, at 0.2 µM
Serine/threonine-protein kinase Chk2 (Homo sapiens), sequence (O96017 whole entry): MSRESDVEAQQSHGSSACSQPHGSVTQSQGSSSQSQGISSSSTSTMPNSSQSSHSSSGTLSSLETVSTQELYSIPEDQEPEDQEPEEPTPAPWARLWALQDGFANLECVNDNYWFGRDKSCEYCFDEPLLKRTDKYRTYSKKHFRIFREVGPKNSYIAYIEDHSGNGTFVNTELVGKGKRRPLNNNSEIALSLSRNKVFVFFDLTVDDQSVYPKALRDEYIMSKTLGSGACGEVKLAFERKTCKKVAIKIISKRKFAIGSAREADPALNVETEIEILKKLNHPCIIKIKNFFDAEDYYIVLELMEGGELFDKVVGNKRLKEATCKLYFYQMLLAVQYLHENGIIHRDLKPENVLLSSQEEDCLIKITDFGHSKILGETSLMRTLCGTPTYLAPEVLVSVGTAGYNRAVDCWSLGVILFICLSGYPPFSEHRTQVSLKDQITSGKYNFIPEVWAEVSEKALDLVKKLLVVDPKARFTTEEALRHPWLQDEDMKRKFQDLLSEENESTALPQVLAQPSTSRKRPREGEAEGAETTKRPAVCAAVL

[9] = target: Calcium/calmodulin-dependent protein kinase type 1 (Homo sapiens) (UniProt Q14012); experiment: Selectivity interaction (KinomeScan (DiscoverX)) EUB0001049a CAMK1; conditions: at 1 µM
Calcium/calmodulin-dependent protein kinase type 1 (Homo sapiens), sequence (Q14012 whole entry, looked up): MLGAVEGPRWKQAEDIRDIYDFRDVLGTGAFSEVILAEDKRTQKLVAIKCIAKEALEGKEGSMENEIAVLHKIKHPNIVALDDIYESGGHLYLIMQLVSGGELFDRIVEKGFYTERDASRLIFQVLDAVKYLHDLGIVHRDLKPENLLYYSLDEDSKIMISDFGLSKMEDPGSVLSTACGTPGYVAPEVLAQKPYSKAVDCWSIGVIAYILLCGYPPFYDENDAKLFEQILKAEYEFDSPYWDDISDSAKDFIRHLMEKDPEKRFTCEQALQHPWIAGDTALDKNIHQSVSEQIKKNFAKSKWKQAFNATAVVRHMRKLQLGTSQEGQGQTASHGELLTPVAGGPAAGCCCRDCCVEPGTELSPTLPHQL

[10] = target: Cyclin-dependent kinase 19 (Homo sapiens) (UniProt Q9BWU1); experiment: Selectivity interaction (KinomeScan (DiscoverX)) EUB0001049a CDK19; conditions: at 1 µM
[11] = target: Rho-associated protein kinase 1 (Homo sapiens) (UniProt Q13464); experiment: Selectivity interaction (KinomeScan (DiscoverX)) EUB0000695a ROCK1; conditions: at 100 nM
Rho-associated protein kinase 1 (Homo sapiens), sequence (Q13464 2-1354 limits assumed): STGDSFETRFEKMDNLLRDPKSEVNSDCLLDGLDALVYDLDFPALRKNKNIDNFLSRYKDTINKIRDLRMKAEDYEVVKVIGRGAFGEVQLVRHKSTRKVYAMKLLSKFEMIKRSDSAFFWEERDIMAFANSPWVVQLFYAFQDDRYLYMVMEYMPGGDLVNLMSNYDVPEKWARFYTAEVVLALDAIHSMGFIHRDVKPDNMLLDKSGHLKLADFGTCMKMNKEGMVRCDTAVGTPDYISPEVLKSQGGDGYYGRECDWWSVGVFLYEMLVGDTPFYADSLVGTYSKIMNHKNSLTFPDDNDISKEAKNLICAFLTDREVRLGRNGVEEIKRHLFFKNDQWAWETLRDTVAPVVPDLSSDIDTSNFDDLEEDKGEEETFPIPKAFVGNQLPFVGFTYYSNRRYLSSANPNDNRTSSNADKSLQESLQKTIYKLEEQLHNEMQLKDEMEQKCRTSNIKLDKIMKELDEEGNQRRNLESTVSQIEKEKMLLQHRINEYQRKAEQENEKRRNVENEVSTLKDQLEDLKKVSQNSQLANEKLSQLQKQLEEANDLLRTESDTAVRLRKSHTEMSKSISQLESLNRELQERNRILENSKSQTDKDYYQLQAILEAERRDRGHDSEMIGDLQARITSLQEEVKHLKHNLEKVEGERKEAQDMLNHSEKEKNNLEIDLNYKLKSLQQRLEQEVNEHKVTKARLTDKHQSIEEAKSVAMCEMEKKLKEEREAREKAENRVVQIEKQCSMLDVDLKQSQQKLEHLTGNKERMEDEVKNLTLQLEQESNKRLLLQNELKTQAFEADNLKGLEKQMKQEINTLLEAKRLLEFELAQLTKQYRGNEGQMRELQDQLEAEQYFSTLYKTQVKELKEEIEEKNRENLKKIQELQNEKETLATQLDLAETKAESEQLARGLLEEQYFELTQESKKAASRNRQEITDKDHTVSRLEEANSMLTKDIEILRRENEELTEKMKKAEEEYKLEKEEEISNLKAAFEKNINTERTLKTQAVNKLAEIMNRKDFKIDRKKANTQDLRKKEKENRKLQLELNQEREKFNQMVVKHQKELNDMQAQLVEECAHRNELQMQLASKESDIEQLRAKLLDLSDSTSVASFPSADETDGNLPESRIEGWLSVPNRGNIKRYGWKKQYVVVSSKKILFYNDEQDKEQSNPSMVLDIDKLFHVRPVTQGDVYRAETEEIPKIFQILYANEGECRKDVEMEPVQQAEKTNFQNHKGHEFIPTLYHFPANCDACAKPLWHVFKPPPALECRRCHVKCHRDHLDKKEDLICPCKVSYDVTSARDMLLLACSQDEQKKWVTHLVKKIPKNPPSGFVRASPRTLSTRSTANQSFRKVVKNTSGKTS

[12] = target: LIM domain kinase 1 (Homo sapiens) (UniProt P53667); experiment: Selectivity interaction (KinomeScan (DiscoverX)) EUB0000045b LIMK1
LIM domain kinase 1 (Homo sapiens), sequence (P53667 whole entry, looked up, the tested form may be a part): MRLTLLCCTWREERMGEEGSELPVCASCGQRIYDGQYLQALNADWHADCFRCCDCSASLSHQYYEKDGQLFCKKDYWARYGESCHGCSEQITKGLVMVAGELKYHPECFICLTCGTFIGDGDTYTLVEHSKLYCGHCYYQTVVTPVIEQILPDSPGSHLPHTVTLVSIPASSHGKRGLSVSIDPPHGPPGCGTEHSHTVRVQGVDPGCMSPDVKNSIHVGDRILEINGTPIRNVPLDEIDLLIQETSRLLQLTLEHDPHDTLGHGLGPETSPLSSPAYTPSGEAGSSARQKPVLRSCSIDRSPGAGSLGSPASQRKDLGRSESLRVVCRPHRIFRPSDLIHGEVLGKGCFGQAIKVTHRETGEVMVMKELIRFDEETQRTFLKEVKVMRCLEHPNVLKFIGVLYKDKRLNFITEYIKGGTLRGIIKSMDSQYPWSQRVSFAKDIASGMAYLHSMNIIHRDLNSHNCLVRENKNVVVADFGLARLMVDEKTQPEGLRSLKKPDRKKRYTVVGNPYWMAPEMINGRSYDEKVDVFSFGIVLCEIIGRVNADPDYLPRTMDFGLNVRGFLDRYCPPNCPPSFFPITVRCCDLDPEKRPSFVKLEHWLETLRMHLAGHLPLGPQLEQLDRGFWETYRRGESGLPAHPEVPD

[13] = target: Serine/threonine-protein kinase Chk2 (Homo sapiens) (UniProt O96017); experiment: Selectivity interaction (KinomeScan (DiscoverX)) EUB0000618a CHEK2; conditions: at 10 µM
[14] = target: T3, Serine/threonine-protein kinase MAK (Homo sapiens) (UniProt P20794); experiment: Selectivity interaction (KinomeScan (DiscoverX)) EUB0000618a MAK; conditions: at 10 µM
T3 sequence (whole entry): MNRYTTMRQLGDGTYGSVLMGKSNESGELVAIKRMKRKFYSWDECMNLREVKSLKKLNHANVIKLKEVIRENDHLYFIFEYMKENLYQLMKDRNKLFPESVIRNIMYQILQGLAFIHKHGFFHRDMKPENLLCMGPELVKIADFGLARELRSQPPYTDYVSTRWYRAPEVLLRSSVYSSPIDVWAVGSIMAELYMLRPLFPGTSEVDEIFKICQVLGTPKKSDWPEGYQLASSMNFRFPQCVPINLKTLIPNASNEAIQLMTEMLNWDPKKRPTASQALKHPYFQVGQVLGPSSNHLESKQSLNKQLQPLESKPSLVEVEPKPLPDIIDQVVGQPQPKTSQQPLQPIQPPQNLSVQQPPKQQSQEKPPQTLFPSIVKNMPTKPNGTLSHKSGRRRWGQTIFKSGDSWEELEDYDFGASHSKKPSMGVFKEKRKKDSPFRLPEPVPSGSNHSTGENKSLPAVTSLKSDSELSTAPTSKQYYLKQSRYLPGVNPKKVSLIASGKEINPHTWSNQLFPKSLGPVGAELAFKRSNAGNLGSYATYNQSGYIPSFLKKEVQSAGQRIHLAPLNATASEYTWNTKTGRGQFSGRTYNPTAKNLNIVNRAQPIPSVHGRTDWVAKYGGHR

Compound: CC(C)(O)[C@H](F)CN1Cc2cc(NC(=O)c3cnn4cccnc34)c(N3CCOCC3)cc2C1=O
- dTM [1]: 0.2 K

Compound: Cc1ccc(-c2ccc3c(ccc4sc5c(c43)NC[C@@H](C)NC5=O)n2)cn1
- % of inhibition [2]: 68%

Compound: C=CC(=O)Nc1cccc(C(=O)Nc2ccc(Nc3cc(-c4[nH]c(SC)nc4C)ccn3)cc2)c1
- % of control ([3]; at 1 µM): 105%
- % of control ([3]; at 5 µM): 88%

Compound: C=CC(=O)Nc1ccc(C(=O)Nc2[nH]nc3c2CN(C(=O)N[C@H](CN(C)C)c2ccccc2)C3(C)C)cc1
- % of engagement [4]: -3.2%

Compound: O=C(NOC[C@H](O)CO)c1ccc(F)c(F)c1Nc1ccc(I)cc1F
- % of control [5]: 100%

Compound: Cn1cc(-n2cnc3c(NCc4nc5cc(Cl)c(Cl)cc5[nH]4)nc(N4CCOCC4)nc32)cn1
- % of inhibition [6]: 5.65%

Compound: Cc1cc(CN)cc(C)c1-c1ncn(C)c1-c1cncn1C
- % activity ([7]; at 1 µM): > 90%
- % activity ([7]; at 10 µM): > 80%

Compound: CC[C@@H]1[C@H](F)C(=O)N[C@@H]1COc1nccc2cc(C(N)=O)c(OC)cc12 [ZIMLOVISERTIB]
- % of inhibition [8]: -0.3%

Compound: COc1cc(Nc2nc(C)cc(-c3cnn4nc(OC)ccc34)n2)cc(C(F)(F)F)c1
- % of control [9]: 75%
- % of control [10]: 91%

Compound: Cc1cc(F)c(C(=O)Nc2cccc(-c3nncn3C(C)C)n2)cc1-n1cnc(C2CC2)c1
- % of control [11]: 99%

Compound: C=CC(=O)Nc1cc(-n2c(=O)ccc3cnc4ccc(-c5ccc(NS(C)(=O)=O)cc5)cc4c32)ccc1C
- % of control ([12]; at 1 µM): 100%
- % of control ([12]; at 10 µM): 95%

Compound: O[C@H]1CC[C@H](Nc2ncc3nc(Nc4c(F)cc(F)cc4F)n([C@H]4CCOC4)c3n2)CC1
- % of control [13]: 100%
- % of control [14]: 97%
